Values quoted from earlier work, collected in PMC12704579, “New Anticancer 4‐Aryldihydropyrimidinone‐5‐Carboxylates Targeting Hsp90” (Chemical Biology & Drug Design, 2025).

Assays:
Bcl3-p50 = system: Bcl3-p50; set-up: method as in Soukupová [2013]; settings: ref Soukupová [2013]; cited from earlier work
HCC1954 cells = system: HCC1954 cells; set-up: method as in Bordoni [2016]; settings: invasive breast cancer cell line HCC1954; ref Bordoni [2016]; cited from earlier work

CCOc1cc(C2NC(=O)NC(C)=C2C(=O)OCc2ccc3c(c2)OCO3)ccc1O (centres unmarked) [Compound 1]
Activity within the Bcl3-binding assays (Bcl3-p50): not active
Inhibitory activity in colony forming assay, HCC1954 (HCC1954 cells): potent inhibitory activity
